The text below walks through data of publication PMC3147164 (mBio, 2011).

The target in one assay is HK_1190 (Myxococcus xanthus, UniProt Q1DD24). As to conditions: excess ATP; kinase buffer pH 8.0, 10 mM MgCl2; labelled compound.
For a further assay, the target named is HK_4262 (Myxococcus xanthus, UniProt Q1D4I6). Conditions: excess ATP; kinase buffer pH 8.0, 10 mM MgCl2; labelled compound.
Chain of HK_4262 (Q1D4I6 477-702): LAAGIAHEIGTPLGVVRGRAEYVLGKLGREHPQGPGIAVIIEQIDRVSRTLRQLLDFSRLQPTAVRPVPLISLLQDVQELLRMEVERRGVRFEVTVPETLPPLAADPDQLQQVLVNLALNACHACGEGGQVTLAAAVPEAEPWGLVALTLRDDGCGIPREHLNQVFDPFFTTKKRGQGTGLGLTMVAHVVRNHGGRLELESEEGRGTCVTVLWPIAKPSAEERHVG

Chain of HK_1190 (Q1DD24 205-424): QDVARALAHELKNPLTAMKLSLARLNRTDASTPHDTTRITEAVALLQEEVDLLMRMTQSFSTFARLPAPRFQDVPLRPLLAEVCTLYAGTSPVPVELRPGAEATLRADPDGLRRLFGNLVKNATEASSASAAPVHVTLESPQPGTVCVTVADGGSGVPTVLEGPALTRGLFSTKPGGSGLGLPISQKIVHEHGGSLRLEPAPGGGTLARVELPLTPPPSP

Turning to `Nc1ncnc2c1ncn2[C@@H]1O[C@H](COP(=O)(O)OP(=O)(O)OP(=O)(O)O)[C@@H](O)[C@H]1O` [ATP], the “autophosphorylation, radiolabel gel assay” value at HK_1190 and on HK_4262 was “Both kinases were capable of autophosphorylation” throughout.
